US7119206B2, “Derivative of dihydro-dibenzo (a) anthracenes and their use as selective estrogen receptor modulators” (Eli Lilly and Company, priority 2002, dated 2006)
Structures can show the parent of a compound that is named as a salt. Where two headings read alike, the source gives them in different places.

Legend:
ERAlpha receptor = target: T1, ERAlpha receptor (Homo sapiens, UniProt P03372); experiment: ER alpha competition binding assay (3H-Estradiol); settings: 3H-Estradiol competition; IC50 converted to Ki using Cheng-Prusoff; read-out: ER binding Ki (ERα)
T1 construct: purchased PanVera
T1 sequence (P03372 1-595): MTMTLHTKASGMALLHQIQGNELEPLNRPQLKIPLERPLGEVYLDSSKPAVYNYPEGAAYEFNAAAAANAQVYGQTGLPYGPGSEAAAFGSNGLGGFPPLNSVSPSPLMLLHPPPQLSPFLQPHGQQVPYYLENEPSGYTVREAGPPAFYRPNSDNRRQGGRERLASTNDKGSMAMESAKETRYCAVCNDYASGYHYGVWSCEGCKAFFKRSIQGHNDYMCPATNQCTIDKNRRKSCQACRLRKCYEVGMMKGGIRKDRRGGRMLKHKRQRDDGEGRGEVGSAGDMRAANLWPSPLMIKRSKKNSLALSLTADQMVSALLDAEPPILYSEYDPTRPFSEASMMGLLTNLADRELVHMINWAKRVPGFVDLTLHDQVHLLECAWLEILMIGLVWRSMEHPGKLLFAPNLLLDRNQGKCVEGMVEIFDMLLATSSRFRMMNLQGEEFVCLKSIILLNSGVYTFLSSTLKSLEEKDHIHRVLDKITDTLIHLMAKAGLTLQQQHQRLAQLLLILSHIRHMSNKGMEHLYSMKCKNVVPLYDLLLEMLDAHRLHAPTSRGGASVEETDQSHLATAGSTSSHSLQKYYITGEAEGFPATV
Procedure: (§1) Competition binding assay is run in a buffer containing 50 mM Hepes, pH 7.5, 1.5 mM EDTA, 150 mM NaCl, 10% glycerol, 1 mg/ml ovalbumin and 5 mM DTT, using 0.025 μCi per well ^3H-Estradiol(NEN #NET517 at 118 Ci/mmol, 1 mCi/ml), 10 ng/well ERAlpha or ERbeta receptor (PanVera). Competing compounds are added at 10 different concentrations. Non-specific binding is determined in the presence of 1 μM of 17-B Estradiol. The binding reaction (140 μl) is incubated for 4 hours at room temperature, then 70 μl of cold DCC buffer is added to each reaction (DCC buffer contains per 50 ml of assay buffer, 0.75 g of charcoal (Sigma) and 0.25 g of dextran (Pharmacia)). Plates are mixed 8 minutes on an orbital shaker at 4° C. Plates are then centrifuged at 3,000 rpm at 4° C. for 10 minutes. An aliquot of 120 μl of the mix is transferred to another 96-well, white flat bottom plate (Costar) and 175 μl of Wallac Optiphase “Hisafe 3” scintillation fluid is added to each well. Plates are sealed and shaken vigorously on an orbital shaker. After an incubation of 2.5 hrs, read plates in a Wallac Microbeta counter. […] The Kd for ^3H-Estradiol is determined by saturation binding to ER alpha and ER beta receptors. The IC50 values for compounds are converted to Ki using Cheng-Prusoff equation and the Kd determined by saturation binding assay.

ERbeta receptor = target: T2, ERbeta receptor (Homo sapiens, UniProt Q92731); experiment: ER beta competition binding assay (3H-Estradiol); settings: 3H-Estradiol competition; IC50 converted to Ki using Cheng-Prusoff; read-out: ER binding Ki (ERβ)
T2 construct: purchased PanVera
Procedure: as §1

[1] = tested on: MCF-7 breast adenocarcinoma cells; experiment: MCF-7 proliferation assay (14C-thymidine), antagonist mode; assay type: cell-based; settings: with 10 pM E2
Procedure: MCF-7 breast adenocarcinoma cells (ATCC HTB 22) are maintained in MEM (minimal essential medium, phenol red-free, Gibco BRL) supplemented with 10% fetal bovine serum (FBS) (V/V), L-glutamine (2 mM), sodium pyruvate (1 mM), HEPES ((N-[2-hydroxyethyl]piperazine-N′-[2-ethanesulfonic acid]10 mM}, non-essential amino acids(0.1 mM)and Penicillin Streptomycin(1×). Seven days prior to assay, MCF-7 cells are switched to assay media which is the same as maintenance medium except supplemented with 10% dextran-coated charcoal-stripped fetal bovine serum (DCC-FBS) assay medium in place of 10% FBS. MCF-7 cells are removed from flasks using 10× Trypsin EDTA (phenol red free, Gibco BRL) and diluted to 1× in (Ca++/Mg++ free HBSS (phenol red-free). Cells are adjusted to 80,000 cells/ml in assay medium. Approximately 8,000 cells (100 μl) are added to each well in 96 well Cytostar T scintillation plates (Amersham) and incubated at 37° C. in a 5% CO2 humidified incubator for 24 hours to allow cell adherence and equilibration after transfer. Serial dilutions of drugs are prepared in assay medium at 4× the final desired concentration). A 50 μl aliquot of drug dilutions (at 4× the final assay concentration) is transferred to duplicate wells followed by 50 μl assay medium for the agonist mode or 50 μl of 40 pM of E2 for the antagonist mode to a final volume of 200 μl. For each of the agonist plates, a basal level (media) and a maximum stimulated level (with 1 μM E2) is determined. For each of the antagonist plates, a basal level (media) and a E2 (10 pM) alone control is determined. After an additional 48 hours at 37° C. in a 5% CO2 humidified incubator, 20 μl of assay medium containing 0.01 μCi of ^14C-thymidine (52 mCi/mmol, […], Amersham) is added to each well. The plates are incubated overnight in the same incubator and then counted on the Wallac Microbeta counter. […] For the agonist mode, an EC50 and percent of maximum E2 stimulation and concentration of maximum stimulation is calculated.

[2] = tested on: Ishikawa human endometrial tumor cells; experiment: Ishikawa cell assay (PNPP readout), agonist mode; assay type: cell-based; settings: for Emax / Ishikawa Agonist % Eff: % efficacy versus the response to Tamoxifen; for Emax: read-out: Ishikawa Agonist % Eff
Description: (§2) Ishikawa human endometrial tumor cells are maintained in MEM (minimum essential medium, with Earle's salts and L-Glutamine, Gibco BRL, Gaithersburg, Md.), supplemented with 10% fetal bovine serum (FBS) (V/V), (Gibco BRL). One day prior to assay, growth media is changed to assay medium, DMEM/F-12 (3:1) (Dulbecco's Modified Eagle Medium: Nutrient Mixture F-12, 3:1 Mixture, phenol red-free, Gibco BRL) supplemented with 5% dextran coated charcoal stripped fetal bovine serum (DCC-FBS) (Hyclone, Logen, Utah), L-Glutamine (2 mM), MEM sodium pyruvate (1 mM), HEPES (N-[2-hydroxyethyl]piperazine-N′-[2-ethanesulfonic acid] 2 mM) all from Gibco BRL). After an overnight incubation, ishikawa cells are rinsed with Dulbecco's Phosphate Buffered Saline (1×) (D-PBS) without Ca^+2 and Mg^+2 (Gibco BRL), and trypsinized by a 3 minute incubation with 0.25% Trypsin/EDTA, phenol red-free (Gibco BRL). Cells are resuspended in assay medium and adjusted to 250,000 cells/ml. Approximately 25,000 cells in a 100 ul media are added to flat-bottom 96 wells microculture plates (Costar 3596) and incubated at 37° C. in a 5% CO2 humidified incubator for 24 hours. The next day, serial dilutions of compounds are prepared in assay medium (at 6 times the final concentration in the assay). The assay is run in dual mode, agonist and antagonist modes. For the agonist mode, plates receive 25 μl/well of assay medium followed by 25 μl/well of diluted compounds (at 6× the final concentrations). For the antagonist mode, plates receive 25 μl/well of 6 nM E2 (β-Estradiol, Sigma, St. Louis, Mo.) followed by 25 μl/well of diluted compounds (at 6× the final concentrations). After an additional 48-hour incubation at 37° C. in a 5% CO2 humidified incubator, media is aspirated from wells and 100 μl fresh assay medium is added to each microculture. Serial dilutions of compounds are prepared and added to the cells as described above. After an additional 72 hour incubation at 37° C. in a 5% CO2 humidified incubator, the assay is quenched by removing media and rinsing plates twice in Dulbecco's Phosphate Buffered Saline (1×) (D-PBS) (Gibco BRL). The plates are dried for 5 min and frozen at −70° C. for at least 1 hour. The plates are then removed from the freezer and allowed to thaw at room temperature. To each well, 100 μl of 1-Step™ PNPP (Pierce Chemical Company, Rockford, Ill.) is added. After a 20-minute incubation, plates are read on a spectophotometer at 405 nm. The data is fitted to a linear interpolation to derive EC50 (for agonist mode) or IC50 (for antagonist mode) values. For the agonist mode, a % efficacy for each compound is calculated versus the response to Tamoxifen. For the antagonist mode, a % efficacy for each compound is calculated versus E2 (1 nM) alone.

[3] = tested on: Ishikawa human endometrial tumor cells; experiment: Ishikawa cell assay (PNPP readout), antagonist mode; assay type: cell-based; settings: with 1 nM E2
Description: as §2

[4] = Homo sapiens, MCF7, antagonist mode

T2 sequence (Q92731 whole entry): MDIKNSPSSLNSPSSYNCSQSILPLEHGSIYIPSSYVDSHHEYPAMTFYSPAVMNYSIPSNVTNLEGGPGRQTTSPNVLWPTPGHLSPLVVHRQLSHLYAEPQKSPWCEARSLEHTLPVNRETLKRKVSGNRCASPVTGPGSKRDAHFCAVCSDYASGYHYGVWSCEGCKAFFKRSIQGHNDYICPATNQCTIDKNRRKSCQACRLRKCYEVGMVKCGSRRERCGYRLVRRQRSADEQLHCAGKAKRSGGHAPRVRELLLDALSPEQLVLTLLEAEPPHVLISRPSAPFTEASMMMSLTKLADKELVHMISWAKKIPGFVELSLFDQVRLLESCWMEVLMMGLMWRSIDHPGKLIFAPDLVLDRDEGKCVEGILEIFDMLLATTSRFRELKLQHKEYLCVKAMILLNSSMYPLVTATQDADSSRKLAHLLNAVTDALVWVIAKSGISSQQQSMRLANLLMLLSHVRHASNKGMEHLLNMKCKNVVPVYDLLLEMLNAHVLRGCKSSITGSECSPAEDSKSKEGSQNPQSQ

SMILES	Ki (ERAlpha receptor) [nM]	Ki (ERbeta receptor) [nM]	IC50 [1, 4] [nM]	EC50 ([2]; Homo sapiens, Ishikawa) [nM]	IC50 [3] [nM]	IC50 ([1]; antagonist mode) [nM]	EC50 [2] [nM]	Emax ([2]; Homo sapiens, Ishikawa) [%]	Ishikawa Agonist % Eff [2] [%]
Oc1ccc2c3c(ccc2c1)Cc1ccc(F)cc1C3c1ccc(OCCN2CCCCC2)cc1 (racemic) [Example 5, 10-Fluoro-12-[4-(2-piperidin-1-yl-ethoxy)-phenyl]-7,12-dihydro-benzo[a]anthracen-3-ol]	3	31	91	11	610	–	–	79	–
Oc1ccc2c3c(ccc2c1)Cc1ccc(F)cc1C3c1ccc(OCCN2CCCCC2)cc1 (racemic) [Example 6, 10-fluoro-12-[4-(2-piperidin-1-yl-ethoxy)-phenyl]-7,12-dihydro-benzo[a]anthracen-3-ol]	–	–	–	–	–	740	116	–	–
Oc1ccc2c3c(ccc2c1)Cc1ccc(F)cc1C3c1ccc(OCCN2CCCCC2)cc1 (racemic) [Example 7, 10-fluoro-12-[4-(2-piperidin-1-yl-ethoxy)-phenyl]-7,12-dihydro-benzo[a]anthracen-3-ol]	1	–	–	–	–	9	3	–	72
Oc1ccc2c3c(ccc2c1)Cc1ccc(F)cc1C3c1ccc(OCCN2CCCCC2)cc1 (single isomer, unassigned) [Example 6, 10-fluoro-12-[4-(2-piperidin-1-yl-ethoxy)-phenyl]-7,12-dihydro-benzo[a]anthracen-3-ol]	70	149	–	–	–	–	–	69	–
Oc1ccc2c3c(sc2c1)Cc1cccc(O)c1C3c1ccc(OCCN2CCCCC2)cc1 (stereo not shown) [Example 3, 11-[4-(2-Piperidin-1-yl-ethoxy)-phenyl]-6,11-dihydro-benzo[b]naphtho[2,3-d]thiophene-3,10-diol trifluoroacetate]	3	14	42	3	682	–	–	135	–

Continued, in another order:

Ki (ERAlpha receptor) [nM]	Ki (ERbeta receptor) [nM]	IC50 [1, 4] [nM]	EC50 ([2]; Homo sapiens, Ishikawa) [nM]	IC50 [3] [nM]	IC50 ([1]; antagonist mode) [nM]	EC50 [2] [nM]	SMILES	Emax ([2]; Homo sapiens, Ishikawa) [%]	Ishikawa Agonist % Eff [2] [%]
–	4	–	–	–	2	1	Oc1ccc2c(c1)Cc1ccc3cc(O)ccc3c1C2c1ccc(OCCN2CCCCC2)cc1 (racemic) [Example 9, 12-[4-(2-Piperidin-1-yl-ethoxy)-phenyl]-7,12-dihydro-benzo[a]anthracene-3,9-diol]	–	27
–	5	–	–	–	–	3	Oc1ccc2c(c1)Cc1ccc3cc(O)ccc3c1C2c1ccc(OCCN2CCCCC2)cc1 (racemic) [Example 10, 12-[4-(2-piperidin-1-yl-ethoxy)-phenyl]-7,12-dihydro-benzo[a]anthracene-3,9-diol]	–	56
–	4	–	–	–	2	1	Oc1ccc2c(c1)Cc1ccc3cc(O)ccc3c1C2c1ccc(OCCN2CCCCC2)cc1 (racemic) [Example 11, 12-[4-(2-piperidin-1-yl-ethoxy)-phenyl]-7,12-dihydro-benzo[a]anthracene-3,9-diol]	–	19
–	9	–	–	440	–	–	Oc1ccc2c3c(ccc2c1)Cc1ccc(F)cc1C3c1ccc(OCCN2CCCCC2)cc1 (single isomer, unassigned) [Example 7, 10-fluoro-12-[4-(2-piperidin-1-yl-ethoxy)-phenyl]-7,12-dihydro-benzo[a]anthracen-3-ol]	–	–
2	5	17	3	712	–	–	Oc1ccc2c3c(sc2c1)Cc1ccccc1C3c1ccc(OCCN2CCCCC2)cc1 (stereo not shown) [Example 1, 11-[4-(2-Piperidin-1-yl-ethoxy)-phenyl]-6,11-dihydro-benzo[b]naphtho[2,3-d]thiophen-3-ol trifluoroacetate]	77	–
1	1	1	0.5	45	–	–	Oc1ccc2c(c1)Cc1sc3cc(O)ccc3c1C2c1ccc(OCCN2CCCCC2)cc1 (stereo not shown) [Example 2, 11-[4-(2-Piperidin-1-yl-ethoxy)-phenyl]-6,11-dihydro-benzo[b]naphtho[2,3-d]thiophene-3,8-diol trifluoroacetate]	103	–
1	1	1	1	53	–	–	Oc1ccc2c(c1)C(c1ccc(OCCN3CCCCC3)cc1)c1c(sc3cc(O)ccc13)C2 (stereo not shown) [Example 4, 11-[4-(2-Piperidin-1-yl-ethoxy)-phenyl]-6,11-dihydro-benzo[b]naphtho[2,3-d]thiophene-3,9-diol]	56	–
